Results reported in BigSolDB 2.1.

CC(=O)c1c(C)cc(C(C)(C)C)cc1C
solubility (mole fraction)
Conditions	in acetone	in acetonitrile	in cyclohexane	in ethanol	in ethyl acetate	in isopropanol	in methanol	in n-octanol
273.15 K	0.308	0.188	0.279	0.0701	0.376	0.073	0.0607	0.123
278.15 K	0.346	0.235	0.337	0.095	0.427	0.101	0.0828	0.161
283.15 K	0.393	0.291	0.407	0.14	0.479	0.146	0.116	0.205
288.15 K	0.445	0.355	0.48	0.196	0.539	0.206	0.16	0.27
293.15 K	0.505	0.428	0.56	0.27	0.603	0.288	0.228	0.354
298.15 K	0.568	0.521	0.645	0.37	0.673	0.391	0.339	0.46
303.15 K	0.64	0.623	0.735	0.52	0.741	0.542	0.478	0.6
308.15 K	0.728	0.739	0.832	0.705	0.817	0.729	0.667	0.761
